From the supplement of paper PMC4862054

test system: BT-474; experiment: normalised response (% of control), CellTox Green; higher = less cell death (100 = DMSO, 0 = benzethonium chloride kill control); conditions: incubation time: 72 h
Procedure, shortened: (§1)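 Two readouts were taken after 72 h: CellTox Green fluorescence (485/520 nm) first, then CellTiter-Glo luminescence after 10 min at room temperature. Breast cancer cell lines had been seeded as 20 µl suspension into 384-well plates holding compound at 5 concentrations in 10-fold steps across a compound-specific 10,000-fold range. Each value is a normalised signal at a single concentration, with plates scaled to 0.1 % DMSO (100) and a positive kill control (0).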

In order of falling normalised response:
1. CCCCC/C=C/C=C1/C(=O)C=C[C@@H]1C/C=C\CCCC(=O)O [15D-PGJ2] (800 nM)  106%
2. Cc1c(Cn2c(C)nc3c(C(=O)O)cc(N4CCOCC4)cc32)cccc1C(F)(F)F (10000 nM)  100%
3. c1cc(CN2CCCNCCNCCCNCC2)ccc1CN1CCCNCCNCCCNCC1 [Plerixafor] (10000 nM)  99.7%
4. CC[C@@]1(O)C(=O)OCc2c1cc1n(c2=O)Cc2cc3c(CN(C)C)c(O)ccc3nc2-1 [Topotecan] (10000 nM)  88.4%
5. O=C(NC[C@H](O)CO)c1ccncc1Nc1ccc(I)cc1F [Pimasertib] (10000 nM)  88.3%
6. CC(=O)OC[C@H]1O[C@@H]([S-])[C@H](OC(C)=O)[C@@H](OC(C)=O)[C@@H]1OC(C)=O.CCP(CC)CC.[Au+] [Auranofin] (2500 nM)  48.5%
7. CS(=O)(=O)N1CCN(Cc2cc3nc(-c4cccc5[nH]ncc45)nc(N4CCOCC4)c3s2)CC1 [Pictilisib] (10000 nM)  47.1%
8. Cn1cc(CNCC2CCN(c3ncc(C(=O)NO)cn3)CC2)c2ccccc21 [Quisinostat] (1000 nM)  35.7%

test system: BT-549; experiment: as above; conditions: incubation time: 72 h
Procedure, shortened: as §1

In order of falling normalised response:
1. O=C(NC[C@H](O)CO)c1ccncc1Nc1ccc(I)cc1F [Pimasertib] (10000 nM)  125%
2. CCCCC/C=C/C=C1/C(=O)C=C[C@@H]1C/C=C\CCCC(=O)O [15D-PGJ2] (800 nM)  105%
3. CS(=O)(=O)N1CCN(Cc2cc3nc(-c4cccc5[nH]ncc45)nc(N4CCOCC4)c3s2)CC1 [Pictilisib] (10000 nM)  102%
4. Cc1c(Cn2c(C)nc3c(C(=O)O)cc(N4CCOCC4)cc32)cccc1C(F)(F)F (10000 nM)  101%
5. Cn1cc(CNCC2CCN(c3ncc(C(=O)NO)cn3)CC2)c2ccccc21 [Quisinostat] (1000 nM)  64.2%
6. CC[C@@]1(O)C(=O)OCc2c1cc1n(c2=O)Cc2cc3c(CN(C)C)c(O)ccc3nc2-1 [Topotecan] (10000 nM)  56.9%
7. c1cc(CN2CCCNCCNCCCNCC2)ccc1CN1CCCNCCNCCCNCC1 [Plerixafor] (10000 nM)  52.3%
8. CC(=O)OC[C@H]1O[C@@H]([S-])[C@H](OC(C)=O)[C@@H](OC(C)=O)[C@@H]1OC(C)=O.CCP(CC)CC.[Au+] [Auranofin] (2500 nM)  -11.2%

test system: CAL-120; experiment: as above; conditions: incubation time: 72 h
Procedure, shortened: as §1

In order of falling normalised response:
1. CCCCC/C=C/C=C1/C(=O)C=C[C@@H]1C/C=C\CCCC(=O)O [15D-PGJ2] (800 nM)  109%
2. Cc1c(Cn2c(C)nc3c(C(=O)O)cc(N4CCOCC4)cc32)cccc1C(F)(F)F (10000 nM)  106%
3. CS(=O)(=O)N1CCN(Cc2cc3nc(-c4cccc5[nH]ncc45)nc(N4CCOCC4)c3s2)CC1 [Pictilisib] (10000 nM)  105%
4. c1cc(CN2CCCNCCNCCCNCC2)ccc1CN1CCCNCCNCCCNCC1 [Plerixafor] (10000 nM)  95.2%
5. O=C(NC[C@H](O)CO)c1ccncc1Nc1ccc(I)cc1F [Pimasertib] (10000 nM)  72.1%
6. CC(=O)OC[C@H]1O[C@@H]([S-])[C@H](OC(C)=O)[C@@H](OC(C)=O)[C@@H]1OC(C)=O.CCP(CC)CC.[Au+] [Auranofin] (2500 nM)  68.4%
7. CC[C@@]1(O)C(=O)OCc2c1cc1n(c2=O)Cc2cc3c(CN(C)C)c(O)ccc3nc2-1 [Topotecan] (10000 nM)  49.3%
8. Cn1cc(CNCC2CCN(c3ncc(C(=O)NO)cn3)CC2)c2ccccc21 [Quisinostat] (1000 nM)  -15.2%

test system: CAL-148; experiment: as above; conditions: incubation time: 72 h
Procedure, shortened: as §1

In order of rising normalised response:
1. Cn1cc(CNCC2CCN(c3ncc(C(=O)NO)cn3)CC2)c2ccccc21 [Quisinostat] (1000 nM)  -22.9%
2. CC[C@@]1(O)C(=O)OCc2c1cc1n(c2=O)Cc2cc3c(CN(C)C)c(O)ccc3nc2-1 [Topotecan] (10000 nM)  7.1%
3. CS(=O)(=O)N1CCN(Cc2cc3nc(-c4cccc5[nH]ncc45)nc(N4CCOCC4)c3s2)CC1 [Pictilisib] (10000 nM)  47.1%
4. CC(=O)OC[C@H]1O[C@@H]([S-])[C@H](OC(C)=O)[C@@H](OC(C)=O)[C@@H]1OC(C)=O.CCP(CC)CC.[Au+] [Auranofin] (2500 nM)  60.1%
5. Cc1c(Cn2c(C)nc3c(C(=O)O)cc(N4CCOCC4)cc32)cccc1C(F)(F)F (10000 nM)  77.8%
6. c1cc(CN2CCCNCCNCCCNCC2)ccc1CN1CCCNCCNCCCNCC1 [Plerixafor] (10000 nM)  98.5%
7. O=C(NC[C@H](O)CO)c1ccncc1Nc1ccc(I)cc1F [Pimasertib] (10000 nM)  99.6%
8. CCCCC/C=C/C=C1/C(=O)C=C[C@@H]1C/C=C\CCCC(=O)O [15D-PGJ2] (800 nM)  102%

test system: CAL-51; experiment: as above; conditions: incubation time: 72 h
Procedure, shortened: as §1

In order of rising normalised response:
1. Cn1cc(CNCC2CCN(c3ncc(C(=O)NO)cn3)CC2)c2ccccc21 [Quisinostat] (1000 nM)  -21.8%
2. CC[C@@]1(O)C(=O)OCc2c1cc1n(c2=O)Cc2cc3c(CN(C)C)c(O)ccc3nc2-1 [Topotecan] (10000 nM)  -18.1%
3. CS(=O)(=O)N1CCN(Cc2cc3nc(-c4cccc5[nH]ncc45)nc(N4CCOCC4)c3s2)CC1 [Pictilisib] (10000 nM)  48.2%
4. CC(=O)OC[C@H]1O[C@@H]([S-])[C@H](OC(C)=O)[C@@H](OC(C)=O)[C@@H]1OC(C)=O.CCP(CC)CC.[Au+] [Auranofin] (2500 nM)  71%
5. c1cc(CN2CCCNCCNCCCNCC2)ccc1CN1CCCNCCNCCCNCC1 [Plerixafor] (10000 nM)  85.7%
6. Cc1c(Cn2c(C)nc3c(C(=O)O)cc(N4CCOCC4)cc32)cccc1C(F)(F)F (10000 nM)  90.7%
7. O=C(NC[C@H](O)CO)c1ccncc1Nc1ccc(I)cc1F [Pimasertib] (10000 nM)  93.8%
8. CCCCC/C=C/C=C1/C(=O)C=C[C@@H]1C/C=C\CCCC(=O)O [15D-PGJ2] (800 nM)  104%

test system: CAL-85-1; experiment: as above; conditions: incubation time: 72 h
Procedure, shortened: as §1

In order of rising normalised response:
1. Cn1cc(CNCC2CCN(c3ncc(C(=O)NO)cn3)CC2)c2ccccc21 [Quisinostat] (1000 nM)  -55.4%
2. CC(=O)OC[C@H]1O[C@@H]([S-])[C@H](OC(C)=O)[C@@H](OC(C)=O)[C@@H]1OC(C)=O.CCP(CC)CC.[Au+] [Auranofin] (2500 nM)  -5.72%
3. CC[C@@]1(O)C(=O)OCc2c1cc1n(c2=O)Cc2cc3c(CN(C)C)c(O)ccc3nc2-1 [Topotecan] (10000 nM)  42.3%
4. CS(=O)(=O)N1CCN(Cc2cc3nc(-c4cccc5[nH]ncc45)nc(N4CCOCC4)c3s2)CC1 [Pictilisib] (10000 nM)  50.2%
5. O=C(NC[C@H](O)CO)c1ccncc1Nc1ccc(I)cc1F [Pimasertib] (10000 nM)  51.5%
6. Cc1c(Cn2c(C)nc3c(C(=O)O)cc(N4CCOCC4)cc32)cccc1C(F)(F)F (10000 nM)  78.3%
7. CCCCC/C=C/C=C1/C(=O)C=C[C@@H]1C/C=C\CCCC(=O)O [15D-PGJ2] (800 nM)  94.3%
8. c1cc(CN2CCCNCCNCCCNCC2)ccc1CN1CCCNCCNCCCNCC1 [Plerixafor] (10000 nM)  117%

test system: DU-4475; experiment: as above; conditions: incubation time: 72 h
Procedure, shortened: as §1

In order of falling normalised response:
1. Cc1c(Cn2c(C)nc3c(C(=O)O)cc(N4CCOCC4)cc32)cccc1C(F)(F)F (10000 nM)  102%
2. CCCCC/C=C/C=C1/C(=O)C=C[C@@H]1C/C=C\CCCC(=O)O [15D-PGJ2] (800 nM)  94.9%
3. c1cc(CN2CCCNCCNCCCNCC2)ccc1CN1CCCNCCNCCCNCC1 [Plerixafor] (10000 nM)  92.3%
4. CC(=O)OC[C@H]1O[C@@H]([S-])[C@H](OC(C)=O)[C@@H](OC(C)=O)[C@@H]1OC(C)=O.CCP(CC)CC.[Au+] [Auranofin] (2500 nM)  91%
5. Cn1cc(CNCC2CCN(c3ncc(C(=O)NO)cn3)CC2)c2ccccc21 [Quisinostat] (1000 nM)  77.2%
6. O=C(NC[C@H](O)CO)c1ccncc1Nc1ccc(I)cc1F [Pimasertib] (10000 nM)  72.9%
7. CC[C@@]1(O)C(=O)OCc2c1cc1n(c2=O)Cc2cc3c(CN(C)C)c(O)ccc3nc2-1 [Topotecan] (10000 nM)  60.8%

test system: HCC1143; experiment: as above; conditions: incubation time: 72 h
Procedure, shortened: as §1

In order of falling normalised response:
1. O=C(NC[C@H](O)CO)c1ccncc1Nc1ccc(I)cc1F [Pimasertib] (10000 nM)  124%
2. CS(=O)(=O)N1CCN(Cc2cc3nc(-c4cccc5[nH]ncc45)nc(N4CCOCC4)c3s2)CC1 [Pictilisib] (10000 nM)  120%
3. Cc1c(Cn2c(C)nc3c(C(=O)O)cc(N4CCOCC4)cc32)cccc1C(F)(F)F (10000 nM)  115%
4. CCCCC/C=C/C=C1/C(=O)C=C[C@@H]1C/C=C\CCCC(=O)O [15D-PGJ2] (800 nM)  110%
5. c1cc(CN2CCCNCCNCCCNCC2)ccc1CN1CCCNCCNCCCNCC1 [Plerixafor] (10000 nM)  101%
6. CC[C@@]1(O)C(=O)OCc2c1cc1n(c2=O)Cc2cc3c(CN(C)C)c(O)ccc3nc2-1 [Topotecan] (10000 nM)  87.9%
7. CC(=O)OC[C@H]1O[C@@H]([S-])[C@H](OC(C)=O)[C@@H](OC(C)=O)[C@@H]1OC(C)=O.CCP(CC)CC.[Au+] [Auranofin] (2500 nM)  73.2%
8. Cn1cc(CNCC2CCN(c3ncc(C(=O)NO)cn3)CC2)c2ccccc21 [Quisinostat] (1000 nM)  57.9%

test system: HCC1599; experiment: as above; conditions: incubation time: 72 h
Procedure, shortened: as §1

In order of rising normalised response:
1. Cn1cc(CNCC2CCN(c3ncc(C(=O)NO)cn3)CC2)c2ccccc21 [Quisinostat] (1000 nM)  71.7%
2. CC[C@@]1(O)C(=O)OCc2c1cc1n(c2=O)Cc2cc3c(CN(C)C)c(O)ccc3nc2-1 [Topotecan] (10000 nM)  71.7%
3. CC(=O)OC[C@H]1O[C@@H]([S-])[C@H](OC(C)=O)[C@@H](OC(C)=O)[C@@H]1OC(C)=O.CCP(CC)CC.[Au+] [Auranofin] (2500 nM)  96.3%
4. c1cc(CN2CCCNCCNCCCNCC2)ccc1CN1CCCNCCNCCCNCC1 [Plerixafor] (10000 nM)  98.2%
5. CS(=O)(=O)N1CCN(Cc2cc3nc(-c4cccc5[nH]ncc45)nc(N4CCOCC4)c3s2)CC1 [Pictilisib] (10000 nM)  103%
6. O=C(NC[C@H](O)CO)c1ccncc1Nc1ccc(I)cc1F [Pimasertib] (10000 nM)  105%
7. Cc1c(Cn2c(C)nc3c(C(=O)O)cc(N4CCOCC4)cc32)cccc1C(F)(F)F (10000 nM)  108%
8. CCCCC/C=C/C=C1/C(=O)C=C[C@@H]1C/C=C\CCCC(=O)O [15D-PGJ2] (800 nM)  108%

test system: HCC1937; experiment: as above; conditions: incubation time: 72 h
Procedure, shortened: as §1

In order of rising normalised response:
1. CCCCC/C=C/C=C1/C(=O)C=C[C@@H]1C/C=C\CCCC(=O)O [15D-PGJ2] (800 nM)  110%
2. Cc1c(Cn2c(C)nc3c(C(=O)O)cc(N4CCOCC4)cc32)cccc1C(F)(F)F (10000 nM)  114%
